Laboratory results published in patent US20230190754A1, “Therapeutic combinations for the treatment of Progressive Fibrosing interstitial lung diseases” (Boehringer Ingelheim International GmbH, priority 2021, published 2023).

System: IPF patients
Experiment: Phase II clinical trial in IPF patients: Treatment Emergent Adverse Events (safety/tolerability), up to 13 weeks
Protocol: The participants were divided into 2 groups by chance (the “active agent group” and the “placebo group”). […] One 12 mg placebo tablet and one 6 mg placebo tablet (both containing no active ingredient, see Table 1) was administered orally to the patients of the second group twice daily (b.i.d.).
The “active agent group” and the “placebo group” were further distributed to two different groups regarding background medication: the “AF-group” (“antifibrotic background medication group”) and the “Non-AF-group” (“no antifibrotic background medication group”). […] The combination of both nintedanib and pirfenidone as background medication was not allowed in the “AF-group”.
The trial was a randomised, double-blind, placebo-controlled parallel group study.

Structure (SMILES): [O-][S@+]1CCc2nc(N3CCC(c4ncc(Cl)cn4)CC3)nc(NC3(CO)CCC3)c21 [Comp. of form. III]
- AE: Metabolism and nutrition disorders, patients n (Non-AF+AF total, 18 mg b.i.d.): 4
- AE: Musculoskeletal and connective tissue disorders, patients % (Non-AF+AF total, 18 mg b.i.d.): (5.2) %
- AE: Musculoskeletal and connective tissue disorders, patients n (Non-AF+AF total, 18 mg b.i.d.): 5
- AE: Nasopharyngitis, patients % (Non-AF+AF total, 18 mg b.i.d.): (4.1) %
- AE: Nasopharyngitis, patients n (Non-AF+AF total, 18 mg b.i.d.): 4
- AE: Nausea, patients % (Non-AF+AF total, 18 mg b.i.d.): (3.1) %
- AE: Nausea, patients n (Non-AF+AF total, 18 mg b.i.d.): 3
- AE: Nervous system disorders, patients % (Non-AF+AF total, 18 mg b.i.d.): (13.4) %
- AE: Nervous system disorders, patients n (Non-AF+AF total, 18 mg b.i.d.): 13
- AE: Oedema peripheral, patients % (Non-AF+AF total, 18 mg b.i.d.): (2.1) %
- AE: Oedema peripheral, patients n (Non-AF+AF total, 18 mg b.i.d.): 2
- AE: Pyrexia, patients % (Non-AF+AF total, 18 mg b.i.d.): (2.1) %
- AE: Pyrexia, patients n (Non-AF+AF total, 18 mg b.i.d.): 2
- AE: Respiratory, thoracic and mediastinal disorders, patients % (Non-AF+AF total, 18 mg b.i.d.): (14.4) %
- AE: Respiratory, thoracic and mediastinal disorders, patients n (Non-AF+AF total, 18 mg b.i.d.): 14
- AE: Rhinorrhoea, patients % (Non-AF+AF total, 18 mg b.i.d.): (2.1) %
- AE: Rhinorrhoea, patients n (Non-AF+AF total, 18 mg b.i.d.): 2
- AE: Vomiting, patients % (Non-AF+AF total, 18 mg b.i.d.): (3.1) %
- AE: Vomiting, patients n (Non-AF+AF total, 18 mg b.i.d.): 3
- AE: Weight decreased, patients % (Non-AF+AF total, 18 mg b.i.d.): (3.1) %
- AE: Weight decreased, patients n (Non-AF+AF total, 18 mg b.i.d.): 3
- AEs leading to discontinuation of trial drug, patients % (Non-AF+AF total, 18 mg b.i.d.): (13.4) %
- AEs leading to discontinuation of trial drug, patients n (Non-AF+AF total, 18 mg b.i.d.): 13
- Any AE, patients n (Non-AF+AF total, 18 mg b.i.d.): 67
- Diarrhoea leading to discontinuation of trial treatment, patients % (Non-AF+AF total, 18 mg b.i.d.): (3.1) %
- Diarrhoea leading to discontinuation of trial treatment, patients n (Non-AF+AF total, 18 mg b.i.d.): 3
- Dyspepsia leading to discontinuation of trial treatment, patients % (Non-AF+AF total, 18 mg b.i.d.): (1.0) %
- Dyspepsia leading to discontinuation of trial treatment, patients n (Non-AF+AF total, 18 mg b.i.d.): 1
- Gastrointestinal disorders leading to discontinuation of trial treatment, patients % (Non-AF+AF total, 18 mg b.i.d.): (5.2) %
- Gastrointestinal disorders leading to discontinuation of trial treatment, patients n (Non-AF+AF total, 18 mg b.i.d.): 5
- SAE: COPD, patients % (Non-AF+AF total, 18 mg b.i.d.): (1.0) %
- SAE: COPD, patients n (Non-AF+AF total, 18 mg b.i.d.): 1
- SAE: Cardiac disorders, patients % (Non-AF+AF total, 18 mg b.i.d.): (1.0) %
- SAE: Cardiac disorders, patients n (Non-AF+AF total, 18 mg b.i.d.): 1
- SAE: Cardiac failure congestive, patients % (Non-AF+AF total, 18 mg b.i.d.): (1.0) %
- SAE: Cardiac failure congestive, patients n (Non-AF+AF total, 18 mg b.i.d.): 1
- SAE: Condition aggravated, patients % (Non-AF+AF total, 18 mg b.i.d.): (2.1) %
- SAE: Condition aggravated, patients n (Non-AF+AF total, 18 mg b.i.d.): 2
- SAE: Covid-19 pneumonia, patients % (Non-AF+AF total, 18 mg b.i.d.): (1.0) %
- SAE: Covid-19 pneumonia, patients n (Non-AF+AF total, 18 mg b.i.d.): 1
- SAE: Dyspnoea, patients % (Non-AF+AF total, 18 mg b.i.d.): (1.0) %
- SAE: Dyspnoea, patients n (Non-AF+AF total, 18 mg b.i.d.): 1
- SAE: General disorders and administration side conditions, patients % (Non-AF+AF total, 18 mg b.i.d.): (2.1) %
- SAE: General disorders and administration side conditions, patients n (Non-AF+AF total, 18 mg b.i.d.): 2
- SAE: Infections and Infestations, patients % (Non-AF+AF total, 18 mg b.i.d.): (1.0) %
- SAE: Infections and Infestations, patients n (Non-AF+AF total, 18 mg b.i.d.): 1
- SAE: Lung neoplasm, patients % (Non-AF+AF total, 18 mg b.i.d.): (1.0) %
- SAE: Lung neoplasm, patients n (Non-AF+AF total, 18 mg b.i.d.): 1
- SAE: Neoplasms benign, malignant and unspecified, patients % (Non-AF+AF total, 18 mg b.i.d.): (1.0) %
- SAE: Neoplasms benign, malignant and unspecified, patients n (Non-AF+AF total, 18 mg b.i.d.): 1
- SAE: Nervous system disorders, patients % (Non-AF+AF total, 18 mg b.i.d.): (1.0) %
- SAE: Nervous system disorders, patients n (Non-AF+AF total, 18 mg b.i.d.): 1
- SAE: Peripheral nerve paresis, patients % (Non-AF+AF total, 18 mg b.i.d.): (1.0) %
- SAE: Peripheral nerve paresis, patients n (Non-AF+AF total, 18 mg b.i.d.): 1
- SAE: Respiratory, thoracic and mediastinal disorders, patients % (Non-AF+AF total, 18 mg b.i.d.): (1.0) %
- SAE: Respiratory, thoracic and mediastinal disorders, patients n (Non-AF+AF total, 18 mg b.i.d.): 1
- SAE: Vascular disorders, patients % (Non-AF+AF total, 18 mg b.i.d.): (1.0) %
- SAE: Vascular disorders, patients n (Non-AF+AF total, 18 mg b.i.d.): 1
- SAE: Vasculitis, patients % (Non-AF+AF total, 18 mg b.i.d.): (1.0) %
- SAE: Vasculitis, patients n (Non-AF+AF total, 18 mg b.i.d.): 1
- Serious AEs (patients with ≥1 SAE), patients % (Non-AF+AF total, 18 mg b.i.d.): (6.2) %
- Serious AEs (patients with ≥1 SAE), patients n (Non-AF+AF total, 18 mg b.i.d.): 6
- Severe AEs, patients % (Non-AF+AF total, 18 mg b.i.d.): (4.1) %
- Severe AEs, patients n (Non-AF+AF total, 18 mg b.i.d.): 4
- Vomiting leading to discontinuation of trial treatment, patients % (Non-AF+AF total, 18 mg b.i.d.): (1.0) %
- Vomiting leading to discontinuation of trial treatment, patients n (Non-AF+AF total, 18 mg b.i.d.): 1
- Any AE, patients % (Non-AF+AF total, 18 mg b.i.d., listed as Compound of formula III): (69.1) %
- Any AE, patients % (Non-AF+AF total, 18 mg b.i.d., listed as active agent): 67%
- Abdominal Pain, % (Non-AF, N = 48): (2.1) %
- Asthenia, % (Non-AF, N = 48): (6.3) %
- Bronchitis, % (Non-AF, N = 48): (2.1) %
- Constipation, % (Non-AF, N = 48): (2.1) %
- Cough, % (Non-AF, N = 48): (6.3) %
- Decreased appetite, % (Non-AF, N = 48): (2.1) %
- Diarrhoea, % (Non-AF, N = 48): (16.7) %
- Dizziness, % (Non-AF, N = 48): (2.1) %
- Dyspepsia, % (Non-AF, N = 48): (6.3) %
- Dyspnoea, % (Non-AF, N = 48): (6.3) %
- Fatigue, % (Non-AF, N = 48): (4.2) %
- Flatulence, % (Non-AF, N = 48): (6.3) %
- Gastrointestinal disorders, % (Non-AF, N = 48): (27.1) %
- General Disorders and Administration Side conditions, % (Non-AF, N = 48): (18.8) %
- Headache, % (Non-AF, N = 48): (6.3) %
- Infections and infestations, % (Non-AF, N = 48): (14.6) %
- Investigations, % (Non-AF, N = 48): (10.4) %
- Metabolism and nutrition disorders, % (Non-AF, N = 48): (2.1) %
- Musculoskeletal and connective tissue disorders, % (Non-AF, N = 48): (4.2) %
- Nausea, % (Non-AF, N = 48): (4.2) %
- Nervous system disorders, % (Non-AF, N = 48): (8.3) %
- Oedema peripheral, % (Non-AF, N = 48): (2.1) %
- Pyrexia, % (Non-AF, N = 48): (2.1) %
- Respiratory, thoracic and mediastinal disorders, % (Non-AF, N = 48): (16.7) %
- Rhinorrhoea, % (Non-AF, N = 48): (2.1) %
- Vomiting, % (Non-AF, N = 48): (2.1) %
- Weight decreased, % (Non-AF, N = 48): (4.2) %
- AE resulting in death, patients % (Non-AF-group, 18 mg b.i.d.): (2.1) %
- AE resulting in death, patients n (Non-AF-group, 18 mg b.i.d.): 1
- AE: Abdominal pain, patients % (Non-AF-group, 18 mg b.i.d.): (2.1) %
- AE: Abdominal pain, patients n (Non-AF-group, 18 mg b.i.d.): 1
- AE: Asthenia, patients % (Non-AF-group, 18 mg b.i.d.): (6.3) %
- AE: Asthenia, patients n (Non-AF-group, 18 mg b.i.d.): 3
- AE: Bronchitis, patients % (Non-AF-group, 18 mg b.i.d.): (2.1) %
- AE: Bronchitis, patients n (Non-AF-group, 18 mg b.i.d.): 1
- AE: Constipation, patients % (Non-AF-group, 18 mg b.i.d.): (2.1) %
- AE: Constipation, patients n (Non-AF-group, 18 mg b.i.d.): 1
- AE: Cough, patients % (Non-AF-group, 18 mg b.i.d.): (6.3) %
- AE: Cough, patients n (Non-AF-group, 18 mg b.i.d.): 3
